Consider four molecules from ChEMBL document CHEMBL1201862, “PubChem BioAssay data set” (2004).

Some test systems named below: COLO 205; EKVX; HCC 2998; HCT-15; HOP-92; HT-29; IGROV-1; M14; MCF7; MOLT-4; NCI-H23; NCI-H460; NCI-H522; OVCAR-5; RPMI-8226; SF-539; SK-MEL-28; U-251; UACC-62; UO-31.
Assay in all cases: growth of human tumour cells (NCI), 48 h

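Grown in 96-well plates, cells were treated for 48 hours with each compound at five concentrations. Insufficient inhibition: endpoint recorded as highest concentration tested. GI50 marks 50% less growth.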 The source made the active and inactive calls. Cut-off read from the data, not from the text of the source: active = GI50 up to about 1.1 µM and inactive = higher.

Turning to `O=c1c(-c2ccc(O)cc2)coc2cc(O)cc(O)c12` [GENISTEIN], the GI50 with COLO 205 was > 100 µM (inactive); in the test on EKVX, 63.1 µM (inactive); in the test on HCC 2998, > 100 µM (inactive); in the test with HCT-15 it was 72.9 µM; in the test with HOP-92, > 100 µM (inactive); in the test on HT-29, > 100 µM (inactive). Further, the GI50 was 71.6 µM (inactive) in the test with IGROV-1; > 100 µM (inactive) in the test on M14; > 100 µM (inactive) in the test on MCF7; 40.4 µM (inactive) in the test with MOLT-4; > 100 µM (inactive) in the test with NCI-H23; 42 µM (inactive) in the test on NCI-H460. Also, the GI50 with NCI-H522 is 36.4 µM (inactive); with OVCAR-5, > 100 µM (inactive); in the test on RPMI-8226 it was 77.8 µM (inactive); with SF-539 it was > 100 µM (inactive); in the test with SK-MEL-28, > 100 µM (inactive); with U-251 it was > 100 µM (inactive). Also, the GI50 is > 100 µM (inactive) in the test on UACC-62 and 24.9 µM (inactive) in the test on UO-31.

With `C/C(=N\Nc1nc2ccccc2[nH]1)c1cccc[n+]1[O-]`, the GI50 in the test on COLO 205 is 65.8 µM (inactive); in the test with EKVX, 3.03 µM (inactive); in the test on HCC 2998, 6.55 µM (inactive); in the test with HCT-15, 51.5 µM; with HOP-92, 33.9 µM (inactive); with HT-29 it was 32.1 µM (inactive). The GI50 in the test with IGROV-1 is 63.4 µM (inactive); with M14 it was > 100 µM (inactive); in the test with MCF7, > 100 µM (inactive); in the test on MOLT-4, > 100 µM (inactive); with NCI-H23 it was > 100 µM (inactive); with NCI-H460, 49.2 µM (inactive). Further, the GI50 in the test on NCI-H522 was > 100 µM (inactive); in the test on OVCAR-5, 8.91 µM (inactive); in the test with RPMI-8226 it was > 100 µM (inactive); in the test with SF-539, > 100 µM (inactive); with SK-MEL-28 it was > 100 µM (inactive); in the test with U-251, 75 µM (inactive). For the same molecule, the GI50 with UACC-62 was 87.1 µM (inactive); in the test on UO-31, 64.6 µM (inactive).

Turning to `c1ccc(C(NC2=NCCO2)C2CC2)cc1` (stereo not given), the GI50 with COLO 205 was > 100 µM (inactive); in the test on EKVX, > 100 µM (inactive); in the test with HCC 2998, > 100 µM (inactive); with HCT-15, over 100 µM; with HOP-92, > 100 µM (inactive); in the test with HT-29 it was 58.1 µM (inactive). Moreover, the GI50 in the test with IGROV-1 is > 100 µM (inactive); in the test on M14, > 100 µM (inactive); in the test with MCF7 it was > 100 µM (inactive); in the test on MOLT-4 it was > 100 µM (inactive); in the test with NCI-H23, > 100 µM (inactive); in the test on NCI-H460, 75.2 µM (inactive). Moreover, the GI50 in the test with NCI-H522 is > 100 µM (inactive); with OVCAR-5, > 100 µM (inactive); in the test with RPMI-8226, > 100 µM (inactive); in the test on SF-539 it was 32.3 µM (inactive); in the test on SK-MEL-28, > 100 µM (inactive); in the test with U-251 it was > 100 µM (inactive). Besides, the GI50 in the test with UACC-62 and with UO-31 was > 100 µM (inactive) in each case.

Consider `CC(C)(C)[Si](C)(C)OCC1OC(n2cnc3c(NC(=O)c4ccccc4)ncnc32)CC1O` (stereo not given), for which the GI50 was 18.3 µM (inactive) in the test with COLO 205; 40.3 µM (inactive) in the test on EKVX; 27.7 µM (inactive) with HCC 2998; 51.1 µM in the test on HCT-15; 23.5 µM (inactive) in the test on HOP-92; 36.5 µM (inactive) in the test with HT-29. Besides, the GI50 in the test with IGROV-1 was 33.7 µM (inactive); in the test on M14, 19.9 µM (inactive); in the test on MCF7 it was 44.4 µM (inactive); in the test with MOLT-4 it was 19 µM (inactive); in the test with NCI-H23 it was 48.9 µM (inactive); with NCI-H460, 32.7 µM (inactive). In addition, the GI50 in the test on NCI-H522 was 14.4 µM (inactive); in the test with OVCAR-5, 36.7 µM (inactive); with RPMI-8226, 21.8 µM (inactive); in the test on SF-539, 23.3 µM (inactive); in the test with SK-MEL-28, 36.7 µM (inactive); in the test on U-251, 20.5 µM (inactive). For the same molecule, the GI50 was 18.7 µM (inactive) in the test on UACC-62 and 1.47 µM (inactive) with UO-31.
